{"source": "the supplement of paper PMC10307832", "test_in_all_cases": "relative viability (nuclei count vs DMSO), 5 days (fraction); higher = more cells survive", "key": {"CAL-12T": {"system": "CAL-12T", "procedure,_shortened": "(§1)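 Lung cancer cell lines, seeded in 1536-well plates, were treated the following day by pin tool with a single drug or with five library-drug doses (not always all listed) in √10 steps on top of a fixed anchor-drug dose. Cells were fixed and nuclei stained in one step after 5 days, and nuclei were counted. Relative viability is the nuclei count for treated wells divided by that for vehicle wells, reported as medians of duplicate plates.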"}, "NCI-H2009": {"system": "NCI-H2009", "procedure,_shortened": "as §1"}, "PC-14": {"system": "PC-14", "procedure,_shortened": "as §1"}, "HCC-44": {"system": "HCC-44", "procedure,_shortened": "as §1"}, "LCLC-97TM1": {"system": "LCLC-97TM1", "procedure,_shortened": "as §1"}, "NCI-H727": {"system": "NCI-H727", "procedure,_shortened": "as §1"}, "NCI-H2170": {"system": "NCI-H2170", "procedure,_shortened": "as §1"}, "HCC-366": {"system": "HCC-366", "procedure,_shortened": "as §1"}, "COR-L 105": {"system": "COR-L 105", "procedure,_shortened": "as §1"}, "HCC-15": {"system": "HCC-15", "procedure,_shortened": "as §1"}, "NCI-H2126": {"system": "NCI-H2126", "procedure,_shortened": "as §1"}, "NCI-H1993": {"system": "NCI-H1993", "procedure,_shortened": "as §1"}, "NCI-H2087": {"system": "NCI-H2087", "procedure,_shortened": "as §1"}, "HCC-827": {"system": "HCC-827", "procedure,_shortened": "as §1"}, "HOP-62": {"system": "HOP-62", "procedure,_shortened": "as §1"}, "PC-3 [JPC-3]": {"system": "PC-3 [JPC-3]", "procedure,_shortened": "as §1"}, "SK-MES-1": {"system": "SK-MES-1", "procedure,_shortened": "as §1"}, "BEN": {"system": "BEN", "procedure,_shortened": "as §1"}, "LC-2-ad": {"system": "LC-2-ad", "procedure,_shortened": "as §1"}, "HARA": {"system": "HARA", "procedure,_shortened": "as §1"}, "COR-L23": {"system": "COR-L23", "procedure,_shortened": "as §1"}, "LU99A": {"system": "LU99A", "procedure,_shortened": "as §1"}, "LXF-289": {"system": "LXF-289", "procedure,_shortened": "as §1"}}, "data": [{"smiles": "Cc1cnc(-c2cnc(NCCNc3ccc(C#N)cn3)nc2-c2ccc(Cl)cc2Cl)[nH]1", "note": "+ CC(=O)c1c(C)c2cnc(Nc3ccc(N4CCNCC4)cn3)nc2n(C2CCCC2)c1=O [Palbociclib] (partner 0.5 µM)", "values": [{"measurement": "relative viability", "setting": "CAL-12T; first compound 0.08 µM", "result": 0.43}, {"measurement": "relative viability", "setting": "CAL-12T; first compound 0.253 µM", "result": 0.413}, {"measurement": "relative viability", "setting": "CAL-12T; first compound 0.8 µM", "result": 0.37}, {"measurement": "relative viability", "setting": "CAL-12T; first compound 2.53 µM", "result": 0.286}, {"measurement": "relative viability", "setting": "NCI-H2009; first compound 0.08 µM", "result": 0.256}, {"measurement": "relative viability", "setting": "NCI-H2009; first compound 0.253 µM", "result": 0.208}, {"measurement": "relative viability", "setting": "NCI-H2009; first compound 0.8 µM", "result": 0.29}, {"measurement": "relative viability", "setting": "NCI-H2009; first compound 2.53 µM", "result": 0.225}, {"measurement": "relative viability", "setting": "PC-14; first compound 0.08 µM", "result": 0.572}, {"measurement": "relative viability", "setting": "PC-14; first compound 0.253 µM", "result": 0.503}, {"measurement": "relative viability", "setting": "PC-14; first compound 0.8 µM", "result": 0.614}, {"measurement": "relative viability", "setting": "PC-14; first compound 2.53 µM", "result": 0.323}, {"measurement": "relative viability", "setting": "HCC-44; first compound 0.08 µM", "result": 0.957}, {"measurement": "relative viability", "setting": "HCC-44; first compound 0.253 µM", "result": 0.931}, {"measurement": "relative viability", "setting": "HCC-44; first compound 0.8 µM", "result": 0.97}, {"measurement": "relative viability", "setting": "HCC-44; first compound 2.53 µM", "result": 0.985}, {"measurement": "relative viability", "setting": "LCLC-97TM1; first compound 0.08 µM", "result": 0.282}, {"measurement": "relative viability", "setting": "LCLC-97TM1; first compound 0.253 µM", "result": 0.17}, {"measurement": "relative viability", "setting": "LCLC-97TM1; first compound 0.8 µM", "result": 0.215}, {"measurement": "relative viability", "setting": "LCLC-97TM1; first compound 2.53 µM", "result": 0.209}, {"measurement": "relative viability", "setting": "NCI-H727; first compound 0.08 µM", "result": 0.659}, {"measurement": "relative viability", "setting": "NCI-H727; first compound 0.253 µM", "result": 0.637}, {"measurement": "relative viability", "setting": "NCI-H727; first compound 0.8 µM", "result": 0.644}, {"measurement": "relative viability", "setting": "NCI-H727; first compound 2.53 µM", "result": 0.663}, {"measurement": "relative viability", "setting": "NCI-H2170; first compound 0.08 µM", "result": 0.429}, {"measurement": "relative viability", "setting": "NCI-H2170; first compound 0.8 µM", "result": 0.383}, {"measurement": "relative viability", "setting": "NCI-H2170; first compound 2.53 µM", "result": 0.371}, {"measurement": "relative viability", "setting": "HCC-366; first compound 0.08 µM", "result": 0.404}, {"measurement": "relative viability", "setting": "HCC-366; first compound 0.253 µM", "result": 0.331}, {"measurement": "relative viability", "setting": "HCC-366; first compound 0.8 µM", "result": 0.391}, {"measurement": "relative viability", "setting": "HCC-366; first compound 2.53 µM", "result": 0.312}, {"measurement": "relative viability", "setting": "COR-L 105; first compound 0.08 µM", "result": 0.397}, {"measurement": "relative viability", "setting": "COR-L 105; first compound 0.253 µM", "result": 0.401}, {"measurement": "relative viability", "setting": "COR-L 105; first compound 0.8 µM", "result": 0.382}, {"measurement": "relative viability", "setting": "COR-L 105; first compound 2.53 µM", "result": 0.404}, {"measurement": "relative viability", "setting": "HCC-15; first compound 0.08 µM", "result": 0.689}, {"measurement": "relative viability", "setting": "HCC-15; first compound 0.253 µM", "result": 0.543}, {"measurement": "relative viability", "setting": "HCC-15; first compound 0.8 µM", "result": 0.69}, {"measurement": "relative viability", "setting": "HCC-15; first compound 2.53 µM", "result": 0.724}, {"measurement": "relative viability", "setting": "NCI-H2126; first compound 0.08 µM", "result": 0.369}, {"measurement": "relative viability", "setting": "NCI-H2126; first compound 0.253 µM", "result": 0.355}, {"measurement": "relative viability", "setting": "NCI-H2126; first compound 0.8 µM", "result": 0.331}, {"measurement": "relative viability", "setting": "NCI-H2126; first compound 2.53 µM", "result": 0.341}, {"measurement": "relative viability", "setting": "NCI-H1993; first compound 0.08 µM", "result": 0.718}, {"measurement": "relative viability", "setting": "NCI-H1993; first compound 0.253 µM", "result": 0.566}, {"measurement": "relative viability", "setting": "NCI-H1993; first compound 0.8 µM", "result": 0.621}, {"measurement": "relative viability", "setting": "NCI-H1993; first compound 2.53 µM", "result": 0.679}, {"measurement": "relative viability", "setting": "NCI-H2087; first compound 0.08 µM", "result": 0.235}, {"measurement": "relative viability", "setting": "NCI-H2087; first compound 0.8 µM", "result": 0.227}, {"measurement": "relative viability", "setting": "NCI-H2087; first compound 2.53 µM", "result": 0.146}, {"measurement": "relative viability", "setting": "HCC-827; first compound 0.08 µM", "result": 0.48}, {"measurement": "relative viability", "setting": "HCC-827; first compound 0.253 µM", "result": 0.371}, {"measurement": "relative viability", "setting": "HCC-827; first compound 0.8 µM", "result": 0.484}, {"measurement": "relative viability", "setting": "HCC-827; first compound 2.53 µM", "result": 0.387}, {"measurement": "relative viability", "setting": "HOP-62; first compound 0.08 µM", "result": 0.531}, {"measurement": "relative viability", "setting": "HOP-62; first compound 0.253 µM", "result": 0.426}, {"measurement": "relative viability", "setting": "HOP-62; first compound 0.8 µM", "result": 0.446}, {"measurement": "relative viability", "setting": "HOP-62; first compound 2.53 µM", "result": 0.45}, {"measurement": "relative viability", "setting": "PC-3 [JPC-3]; first compound 0.08 µM", "result": 0.533}, {"measurement": "relative viability", "setting": "PC-3 [JPC-3]; first compound 0.253 µM", "result": 0.488}, {"measurement": "relative viability", "setting": "PC-3 [JPC-3]; first compound 0.8 µM", "result": 0.543}, {"measurement": "relative viability", "setting": "PC-3 [JPC-3]; first compound 2.53 µM", "result": 0.503}, {"measurement": "relative viability", "setting": "SK-MES-1; first compound 0.08 µM", "result": 0.363}, {"measurement": "relative viability", "setting": "SK-MES-1; first compound 0.253 µM", "result": 0.332}, {"measurement": "relative viability", "setting": "SK-MES-1; first compound 0.8 µM", "result": 0.379}, {"measurement": "relative viability", "setting": "SK-MES-1; first compound 2.53 µM", "result": 0.394}, {"measurement": "relative viability", "setting": "BEN; first compound 0.08 µM", "result": 0.495}, {"measurement": "relative viability", "setting": "BEN; first compound 0.253 µM", "result": 0.506}, {"measurement": "relative viability", "setting": "BEN; first compound 0.8 µM", "result": 0.687}, {"measurement": "relative viability", "setting": "BEN; first compound 2.53 µM", "result": 0.545}, {"measurement": "relative viability", "setting": "LC-2-ad; first compound 0.08 µM", "result": 0.473}, {"measurement": "relative viability", "setting": "LC-2-ad; first compound 0.8 µM", "result": 0.485}, {"measurement": "relative viability", "setting": "LC-2-ad; first compound 2.53 µM", "result": 0.436}, {"measurement": "relative viability", "setting": "HARA; first compound 0.08 µM", "result": 0.296}, {"measurement": "relative viability", "setting": "HARA; first compound 0.253 µM", "result": 0.288}, {"measurement": "relative viability", "setting": "HARA; first compound 0.8 µM", "result": 0.262}, {"measurement": "relative viability", "setting": "HARA; first compound 2.53 µM", "result": 0.241}, {"measurement": "relative viability", "setting": "COR-L23; first compound 0.08 µM", "result": 0.328}, {"measurement": "relative viability", "setting": "COR-L23; first compound 0.253 µM", "result": 0.266}, {"measurement": "relative viability", "setting": "COR-L23; first compound 0.8 µM", "result": 0.272}, {"measurement": "relative viability", "setting": "COR-L23; first compound 2.53 µM", "result": 0.264}, {"measurement": "relative viability", "setting": "LU99A; first compound 0.08 µM", "result": 0.375}, {"measurement": "relative viability", "setting": "LU99A; first compound 0.253 µM", "result": 0.388}, {"measurement": "relative viability", "setting": "LU99A; first compound 0.8 µM", "result": 0.442}, {"measurement": "relative viability", "setting": "LU99A; first compound 2.53 µM", "result": 0.389}, {"measurement": "relative viability", "setting": "LXF-289; first compound 0.08 µM", "result": 0.66}, {"measurement": "relative viability", "setting": "LXF-289; first compound 0.253 µM", "result": 0.565}, {"measurement": "relative viability", "setting": "LXF-289; first compound 0.8 µM", "result": 0.571}, {"measurement": "relative viability", "setting": "LXF-289; first compound 2.53 µM", "result": 0.682}]}]}
